Assay: xn = mol fraction of the nth substance listed
Conditions: 101 kPa

CC[NH3+].O=[N+]([O-])[O-] + CC[NH2+]CC.O=[N+]([O-])[O-]
x2 = 0
Conditions	electrical conductivity [S/m]	viscosity [mPa·s]
288.15 K	1.62	–
293.15 K	1.93	43.5
298.15 K	2.25	36.5
303.15 K	2.6	31
308.15 K	2.97	26.5
313.15 K	3.37	22.8
318.15 K	3.78	20
328.15 K	–	15.6
338.15 K	–	12.5
348.15 K	–	10.2
353.15 K	–	9.21

CC[NH3+].O=[N+]([O-])[O-] + CC[N+](CC)(CC)CC.O=[N+]([O-])[O-]
x2 = 0
Conditions	electrical conductivity [S/m]	viscosity [mPa·s]
293.15 K	1.93	43.5
298.15 K	2.25	36.5
303.15 K	2.6	31
308.15 K	2.97	26.5
313.15 K	3.37	22.8
318.15 K	3.78	20
323.15 K	4.22	17.6
328.15 K	–	15.6
333.15 K	–	13.8
343.15 K	–	11.2
348.15 K	–	10.2
353.15 K	–	9.2

CC[N+](CC)(CC)CC.O=[N+]([O-])[O-] + CC[NH3+].O=[N+]([O-])[O-]
Conditions	electrical conductivity [S/m]	viscosity [mPa·s]
293.15 K, x1 = 0.0501	1.56	50.7
293.15 K, x1 = 0.1	1.27	60.1
293.15 K, x1 = 0.2001	0.797	91.6
293.15 K, x1 = 0.2567	0.623	122
293.15 K, x1 = 0.2995	0.392	144
293.15 K, x1 = 0.35	0.359	211
298.15 K, x1 = 0.0501	1.83	42.2
298.15 K, x1 = 0.1	1.5	49.6
298.15 K, x1 = 0.15	1.21	60.4
298.15 K, x1 = 0.2001	0.96	74
298.15 K, x1 = 0.2567	0.762	96.9
298.15 K, x1 = 0.2995	–	114
298.15 K, x1 = 0.35	0.462	167
303.15 K, x1 = 0.1	1.76	41.4
303.15 K, x1 = 0.2001	1.14	60.7
303.15 K, x1 = 0.2567	0.912	78.3
303.15 K, x1 = 0.2995	0.594	91.3
308.15 K, x1 = 0.0501	2.44	30.3
308.15 K, x1 = 0.1	2.03	35.5
308.15 K, x1 = 0.15	1.65	41.9
308.15 K, x1 = 0.2567	1.08	64.1
308.15 K, x1 = 0.2995	0.715	74.2
308.15 K, x1 = 0.35	0.671	104
313.15 K, x1 = 0.0501	2.78	26
313.15 K, x1 = 0.15	1.91	35.6
313.15 K, x1 = 0.2001	1.56	42.4
313.15 K, x1 = 0.2567	1.26	53.4
313.15 K, x1 = 0.2995	0.848	61.3
313.15 K, x1 = 0.35	0.804	85.4
318.15 K, x1 = 0.0501	3.14	22.5
318.15 K, x1 = 0.1	2.65	26.1
318.15 K, x1 = 0.15	2.17	30.4
318.15 K, x1 = 0.2001	1.79	35.9
318.15 K, x1 = 0.2567	1.46	44.7
318.15 K, x1 = 0.35	0.948	69.4
323.15 K, x1 = 0.0501	3.52	19.7
323.15 K, x1 = 0.1	2.99	22.7
323.15 K, x1 = 0.2001	2.04	30.7
323.15 K, x1 = 0.2567	1.68	37.9
323.15 K, x1 = 0.2995	1.22	42.8
323.15 K, x1 = 0.35	1.11	57.6
328.15 K, x1 = 0.0501	–	17.3
328.15 K, x1 = 0.1	–	19.9
328.15 K, x1 = 0.15	–	22.8
328.15 K, x1 = 0.2995	–	36.4
333.15 K, x1 = 0.0501	–	15.3
333.15 K, x1 = 0.1	–	17.5
333.15 K, x1 = 0.2001	–	23.2
333.15 K, x1 = 0.2567	–	28.1
333.15 K, x1 = 0.2995	–	31.3
333.15 K, x1 = 0.35	–	41.5
338.15 K, x1 = 0.0501	–	13.7
338.15 K, x1 = 0.1	–	15.5
338.15 K, x1 = 0.15	–	17.7
338.15 K, x1 = 0.2001	–	20.3
338.15 K, x1 = 0.2567	–	24.3
338.15 K, x1 = 0.2995	–	27
338.15 K, x1 = 0.35	–	35.1
343.15 K, x1 = 0.0501	–	12.3
343.15 K, x1 = 0.1	–	13.6
343.15 K, x1 = 0.2001	–	18
343.15 K, x1 = 0.2567	–	21.4
343.15 K, x1 = 0.2995	–	23.6
343.15 K, x1 = 0.35	–	30.2
348.15 K, x1 = 0.0501	–	11.1
348.15 K, x1 = 0.1	–	12.2
348.15 K, x1 = 0.15	–	14.1
348.15 K, x1 = 0.2567	–	18.9
348.15 K, x1 = 0.2995	–	20.7
353.15 K, x1 = 0.0501	–	10
353.15 K, x1 = 0.15	–	12.7
353.15 K, x1 = 0.2001	–	14.4
353.15 K, x1 = 0.2567	–	16.9
353.15 K, x1 = 0.2995	–	18.4

CCC[NH3+].O=[N+]([O-])[O-] + CCCC[NH3+].O=[N+]([O-])[O-]
x1 = 0.5
Conditions	electrical conductivity [S/m]	viscosity [mPa·s]
298.15 K	0.606	80.6
303.15 K	0.729	65.7
308.15 K	0.866	54.2
318.15 K	1.18	38.3
333.15 K	–	24.4
338.15 K	–	21.3
348.15 K	–	16.7
353.15 K	–	14.9

CCC[NH3+].O=[N+]([O-])[O-] + CC[NH3+].O=[N+]([O-])[O-]
x2 = 0.5
Conditions	electrical conductivity [S/m]	viscosity [mPa·s]
288.15 K	0.991	–
298.15 K	1.42	53
308.15 K	1.93	37.1
313.15 K	2.22	31.6
323.15 K	2.85	23.5
328.15 K	–	20.5
333.15 K	–	18.1
338.15 K	–	16
343.15 K	–	14.3
348.15 K	–	12.8

Reference: a compilation of properties of binary mixtures (doi:10.1021/acs.jpcb.5b11900)
